Results taken from USRE40086E1, “Method for treating bacterial infection with novel 7-substituted-9-substituted amino 6-demethyl-6-deoxytetracyclines” (Wyeth Holdings Corporation, priority 1991, dated 2008).
Where a name gives a salt, the structure may show the parent alone.

Columns and labels:
[1] = system: X. maltophilia NEMC 87210; assay: MIC, agar dilution (Table IA); format: cell-based; conditions: unit assumed
Shigella spp. = format: cell-based; conditions: [14] tested
E. coli BAJ9003 = assay: MIC, agar dilution (Table IA); format: cell-based; conditions: unit assumed
Enterobacter aerogenes = assay: MIC vs recent clinical and agricultural isolates (Table V, KK); format: cell-based; conditions: [10] tested
S. aureus SMITH (sens) = assay: In vivo antibacterial evaluation, acute lethal infection in mice; conditions: Intraveneous
E. coli PRP1 TetA = assay: MIC, agar dilution (Table IA); format: cell-based; conditions: unit assumed
Anaerobic Gram (+) Cocci = assay: MIC vs recent clinical and agricultural isolates (Table V, KK); format: cell-based; conditions: [15] tested
Citrobacter diversus = assay: as above; format: cell-based; conditions: [10] tested
S. aureus ROSE (MP) = assay: MIC, agar dilution (Table IA); format: cell-based; conditions: unit assumed
S. aureus NEMC 8769/89-4 = assay: MIC, agar dilution (Table IA); format: cell-based; conditions: unit assumed
Neisseria gonorrhoeae [2] = assay: MIC vs recent clinical and agricultural isolates (Table V, KK); format: cell-based; conditions: [14] tested
E. coli MC4100 TetB = assay: MIC, agar dilution (Table IA); format: cell-based; conditions: unit assumed
[3] = system: Salmonella cholerasuis (Agricultural); assay: MIC vs recent clinical and agricultural isolates (Table V, KK); format: cell-based; conditions: [15] tested
[4] = system: Wild Type S30 extract, E. coli strain MRE600 (tetracycline sensitive); assay: E. coli in vitro transcription and protein translation, 35S-methionine incorporation (Table VIII)
E. coli UBMS 90-5 = assay: MIC, agar dilution (Table IA); format: cell-based; conditions: unit assumed
Providencia spp. = assay: MIC vs recent clinical and agricultural isolates (Table V, KK); format: cell-based; conditions: [13] tested
S. mariescens FDOR 8733 = assay: MIC, agar dilution (Table IA); format: cell-based; conditions: unit assumed
Morganella morganii = assay: MIC vs recent clinical and agricultural isolates (Table V, KK); format: cell-based; conditions: [16] tested
E. coli J2175 = assay: MIC, agar dilution (Table IA); format: cell-based; conditions: unit assumed
Kiebsiella pneumoniae = assay: MIC vs recent clinical and agricultural isolates (Table V, KK); format: cell-based; conditions: [10] tested
E. coli J3272 TetD = assay: MIC, agar dilution (Table IA); format: cell-based; conditions: unit assumed
Clostridium difficile = assay: MIC vs recent clinical and agricultural isolates (Table V, KK); format: cell-based; conditions: [12] tested
[5] = system: Salmonella spp. (Clinical); format: cell-based; conditions: [11] tested
E. coli #311 (MP) = assay: MIC, agar dilution (Table IA); format: cell-based; conditions: unit assumed
E. coli J3272 TetC = assay: MIC, agar dilution (Table IA); format: cell-based; conditions: unit assumed
Streptococcus pneumoniae = assay: MIC vs recent clinical and agricultural isolates (Table V, KK); format: cell-based; conditions: [10] tested
Enterococcus faecium = assay: as above; format: cell-based; conditions: [10] tested
[6] = system: Staphylococcus aureus, methicillin-susceptible; assay: as above; format: cell-based; conditions: [15] tested
[7] = system: S. aureus IVES 2943 (meth. resistant); assay: MIC, agar dilution; format: cell-based; conditions: S. aureus IVES 2943; Table IA; unit assumed
[8] = system: N. gonorrhoeae 6418 (tetM); assay: MIC, agar dilution; format: cell-based; conditions: Neisseria gonorrhoeae
Haemophilus influenzae = assay: MIC against clinical isolates (Table V, A and O); format: cell-based; conditions: (18) tested
Klebsiella pneumoniae = assay: MIC against clinical isolates (Table V, A and O); format: cell-based; conditions: Klebsiella pneumoniae clinical isolates, (10) tested
Proteus spp. indole+ = assay: MIC against clinical isolates (Table V, A and O); format: cell-based; conditions: Proteus spp. indole+ clinical isolates, (9) tested
S. aureus UBMS 90-1 = assay: In vivo antibacterial evaluation, acute lethal infection in mice; conditions: Staphylococcus aureus, UBMS901, sc, read-out: ED50, median effective dose protecting 50% of the infected mice; mice infected with S. aureus UBMS 90-1 (tetM), single subcutaneous dosing
Excerpt: In Vivo Antibacterial Evaluation (Table VII)

Enterococcus faecalis = assay: MIC against clinical isolates (Table V, A and O); format: cell-based; conditions: Enterococcus faecalis clinical isolates, (14) tested
Neisseria gonorrhoeae [9] = assay: MIC against clinical isolates (Table V, A and O); format: cell-based; conditions: Neisseria gonorrhoeae clinical isolates, (9) tested
Escherichia coli = assay: MIC against clinical isolates (Table V, A and O); format: cell-based; conditions: Escherichia coli clinical isolates, (10) tested
[10] = system: E. faecalis UBMS 90-7 (tetM); assay: MIC, agar dilution; format: cell-based; conditions: Enterococcus faecalis
[11] = system: N. gonorrhoeae IL 611 (Sensitive); assay: MIC, agar dilution; format: cell-based; conditions: Neisseria gonorrhoeae; N. gonorrhoeae IL 611 (Sensitive); read-out: MIC
Bacteroides spp. = assay: MIC against clinical isolates (Table V, A and O); format: cell-based; conditions: Bacteroides spp. clinical isolates, (15) tested

With `CN(C)CC(=O)Nc1cc(N(C)C)c2c(c1O)C(=O)C1=C(O)[C@]3(O)C(=O)C(C(N)=O)=C(O)[C@@H](N(C)C)C3CC1C2.Cl.Cl` (stereo partly drawn) [KK, [4S-(4alpha,12aalpha)]-4,7-Bis(dimethylamino)-9-[[(dimethylamino)acetyl]amino]-1,4,4a,5,5a,6,11,12a-octahydro-3,10,12,12a-tetrahydroxy-1,11-dioxo-2-naphthacenecarboxamide dihydrochloride] the Antibacterial activity (MIC) [1] was 0.25 µg/mL, the “MIC (range over isolates)” value (Shigella spp.) was 0.06 to 0.5 µg/mL and the Antibacterial activity (MIC) (E. coli BAJ9003) was 0.03 µg/mL. The “MIC (range over isolates)” value (Enterobacter aerogenes) was 0.5 to 1 µg/mL, the ED50 (S. aureus SMITH (sens)) was 0.68 mg/kg and the Antibacterial activity (MIC) (E. coli PRP1 TetA) was 1 µg/mL. For the same molecule, the “MIC (range over isolates)” value (Anaerobic Gram (+) Cocci) was 0.015 to 0.06 µg/mL, the “MIC (range over isolates)” value (Citrobacter diversus) was 0.25 to 1 µg/mL and the Antibacterial activity (MIC) (S. aureus ROSE (MP)) was 1 µg/mL. The Antibacterial activity (MIC) (S. aureus NEMC 8769/89-4) was 0.06 µg/mL, the “MIC (range over isolates)” value (Neisseria gonorrhoeae [2]) was 0.25 to 1 µg/mL and the Antibacterial activity (MIC) (E. coli MC4100 TetB) was 0.25 µg/mL. For the same molecule, the “MIC (range over isolates)” value [3] was 0.5 to 16 µg/mL, the “% INHIBITION Wild Type S30” value ([4]; 0.03 mg/ml) was 81% and the “% INHIBITION Wild Type S30” value ([4]; 0.06 mg/ml) was 82%. The “% INHIBITION Wild Type S30” value ([4]; 0.5 mg/ml) was 90%, the “% INHIBITION Wild Type S30” value ([4]; 1.0 mg/ml) was 92% and the Antibacterial activity (MIC) (E. coli UBMS 90-5) was 0.25 µg/mL. The “MIC (range over isolates)” value (Providencia spp.) was 2 to 8 µg/mL, the Antibacterial activity (MIC) (S. mariescens FDOR 8733) was 2 µg/mL and the “MIC (range over isolates)” value (Morganella morganii) was 0.5 to 4 µg/mL. The Antibacterial activity (MIC) (E. coli J2175) was 0.25 µg/mL, the “MIC (range over isolates)” value (Kiebsiella pneumoniae) was 0.25 to 8 µg/mL and the Antibacterial activity (MIC) (E. coli J3272 TetD) was 0.12 µg/mL. The “MIC (range over isolates)” value (Clostridium difficile) was 0.03 µg/mL, the “MIC (range over isolates)” value [5] was 0.25 to 0.5 µg/mL and the Antibacterial activity (MIC) (E. coli #311 (MP)) was 0.25 µg/mL. The Antibacterial activity (MIC) (E. coli J3272 TetC) was 1 µg/mL, the “MIC (range over isolates)” value (Streptococcus pneumoniae) was 0.03 to 0.25 µg/mL and the “MIC (range over isolates)” value (Enterococcus faecium) was 0.03 to 0.12 µg/mL. The “MIC (range over isolates)” value [6] was 0.12 to 0.25 µg/mL and the Antibacterial activity (MIC) [7] was 1 µg/mL.
With `CN(C)c1ccc(O)c2c1C[C@H]1C[C@H]3[C@H](N(C)C)C(O)=C(C(N)=O)C(=O)[C@@]3(O)C(O)=C1C2=O` [Compound O, 7-(Dimethylamino)-6-demethyl-6-deoxytetracycline hydrochloride (minocycline hydrochloride), reference compound] the “MIC (range over isolates)” value (Shigella spp.) was 0.25 to 8 µg/mL, the MIC [8] was over 32 µg/mL and the “MIC (range over isolates)” value (Enterobacter aerogenes) was 0.5 to 1 µg/mL. The “MIC (range over isolates)” value (Anaerobic Gram (+) Cocci) was 0.05 to 8 µg/mL, the MIC50 (Haemophilus influenzae) was 0.12 µg/mL and the MIC90 (Haemophilus influenzae) was 0.25 µg/mL. The “MIC Range” value (Haemophilus influenzae) was 0.06 to 0.25 µg/mL, the “MIC (range over isolates)” value (Citrobacter diversus) was 0.25 to 4 µg/mL and the “MIC (range over isolates)” value (Neisseria gonorrhoeae [2]) was 0.5 to 64 µg/mL. The MIC50 (Klebsiella pneumoniae; read-out: MIC50) was 1 µg/mL, the MIC90 (Klebsiella pneumoniae; read-out: MIC90) was 4 µg/mL and the MIC50 (Proteus spp. indole+; read-out: MIC50) was 16 µg/mL. For the same molecule, the MIC90 (Proteus spp. indole+; read-out: MIC90) was over 32 µg/mL, the ED50 (S. aureus UBMS 90-1) was 1.7 mg/kg and the “MIC Range” value (Enterococcus faecalis) was under 0.015 to 16.00 µg/mL. The MIC50 (Enterococcus faecalis; read-out: MIC50) was 4 µg/mL, the MIC90 (Enterococcus faecalis; read-out: MIC90) was 16 µg/mL and the MIC50 (Neisseria gonorrhoeae [9]; read-out: MIC50) was 0.25 µg/mL. The MIC90 (Neisseria gonorrhoeae [9]; read-out: MIC90) was over 32 µg/mL, the “MIC Range” value (Escherichia coli) was 0.12 to 32.00 µg/mL and the MIC50 (Escherichia coli; read-out: MIC50) was 0.25 µg/mL. For the same molecule, the MIC90 (Escherichia coli; read-out: MIC90) was 16 µg/mL, the “MIC (range over isolates)” value (Morganella morganii) was 0.25 to 32 µg/mL and the MIC [10] was 8 µg/mL. The “MIC (range over isolates)” value (Kiebsiella pneumoniae) was 0.5 to 8 µg/mL, the “MIC (range over isolates)” value (Clostridium difficile) was 0.015 to 16 µg/mL and the MIC [11] was 0.5 µg/mL. For the same molecule, the “MIC (range over isolates)” value (Streptococcus pneumoniae) was 0.06 to 0.5 µg/mL, the “MIC (range over isolates)” value (Enterococcus faecium) was 0.03 to 16 µg/mL and the “MIC (range over isolates)” value [6] was 0.03 to 0.12 µg/mL. For the same molecule, the “MIC Range” value (Bacteroides spp.) was over 0.15 to 16.00 µg/mL, the MIC50 (Bacteroides spp.; read-out: MIC50) was 1 µg/mL and the MIC90 (Bacteroides spp.; read-out: MIC90) was 4 µg/mL.
